In ChEMBL document CHEMBL5518210 (J Med Chem, 2024):

What was measured:
[1] = Apparent permeability in human Caco-2 cells incubated for 2 hrs by LC/MS analysis
Keap1/Nrf2 = Keap1/Nrf2 (Homo sapiens, UniProt Q14145); assay: Inhibition of His-tagged human Keap1 Kelch domain /FITC-labelled-9mer Nrf2 (unknown origin) protein-protein interaction incubated for 1 hr by fluorescence polarization assay
[2] = Metabolic stability in human liver microsomes assessed as compound remaining at 5 uM measured upto 60 mins
Cytochrome P450 2C9 = Cytochrome P450 2C9 (Homo sapiens, UniProt P11712); assay: Inhibition of CYP2C9 in human liver microsomes; format: ADME, Microsome
Sequence of Cytochrome P450 2C9 (P11712 whole entry): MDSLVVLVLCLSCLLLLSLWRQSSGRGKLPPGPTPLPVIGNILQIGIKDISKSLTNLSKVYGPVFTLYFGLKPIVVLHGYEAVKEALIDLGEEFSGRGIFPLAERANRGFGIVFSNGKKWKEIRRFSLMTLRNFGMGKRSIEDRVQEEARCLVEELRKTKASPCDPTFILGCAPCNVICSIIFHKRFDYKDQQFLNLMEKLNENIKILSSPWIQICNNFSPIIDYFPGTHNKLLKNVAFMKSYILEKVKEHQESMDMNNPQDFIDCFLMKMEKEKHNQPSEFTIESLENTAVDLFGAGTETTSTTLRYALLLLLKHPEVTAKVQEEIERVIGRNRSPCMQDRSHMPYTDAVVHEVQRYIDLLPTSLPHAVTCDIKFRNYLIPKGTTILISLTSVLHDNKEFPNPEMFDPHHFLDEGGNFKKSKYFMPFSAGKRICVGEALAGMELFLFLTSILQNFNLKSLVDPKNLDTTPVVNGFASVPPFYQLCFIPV

Cytochrome P450 2C8 = biological target: T1, Cytochrome P450 2C8 (Homo sapiens, UniProt P10632); assay: Inhibition of CYP2C8 in human liver microsomes; format: ADME, Microsome
T1 sequence (P10632 whole entry): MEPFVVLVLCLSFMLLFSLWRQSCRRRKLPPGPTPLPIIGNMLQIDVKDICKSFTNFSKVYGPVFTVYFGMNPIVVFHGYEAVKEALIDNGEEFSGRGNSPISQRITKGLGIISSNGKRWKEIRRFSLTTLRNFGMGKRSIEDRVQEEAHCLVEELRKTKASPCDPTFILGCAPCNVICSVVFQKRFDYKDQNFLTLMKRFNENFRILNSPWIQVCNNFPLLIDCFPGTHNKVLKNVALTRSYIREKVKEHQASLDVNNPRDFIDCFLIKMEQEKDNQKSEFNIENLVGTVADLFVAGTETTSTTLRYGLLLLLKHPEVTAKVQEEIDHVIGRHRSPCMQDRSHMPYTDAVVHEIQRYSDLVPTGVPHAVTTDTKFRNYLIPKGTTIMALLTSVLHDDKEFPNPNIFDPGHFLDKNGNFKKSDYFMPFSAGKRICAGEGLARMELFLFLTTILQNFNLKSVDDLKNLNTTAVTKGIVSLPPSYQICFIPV

Cytochrome P450 2C19 = Cytochrome P450 2C19 (Homo sapiens, UniProt P33261); assay: Inhibition of CYP2C19 in human liver microsomes; format: ADME, Microsome
Sequence of Cytochrome P450 2C19 (P33261 whole entry): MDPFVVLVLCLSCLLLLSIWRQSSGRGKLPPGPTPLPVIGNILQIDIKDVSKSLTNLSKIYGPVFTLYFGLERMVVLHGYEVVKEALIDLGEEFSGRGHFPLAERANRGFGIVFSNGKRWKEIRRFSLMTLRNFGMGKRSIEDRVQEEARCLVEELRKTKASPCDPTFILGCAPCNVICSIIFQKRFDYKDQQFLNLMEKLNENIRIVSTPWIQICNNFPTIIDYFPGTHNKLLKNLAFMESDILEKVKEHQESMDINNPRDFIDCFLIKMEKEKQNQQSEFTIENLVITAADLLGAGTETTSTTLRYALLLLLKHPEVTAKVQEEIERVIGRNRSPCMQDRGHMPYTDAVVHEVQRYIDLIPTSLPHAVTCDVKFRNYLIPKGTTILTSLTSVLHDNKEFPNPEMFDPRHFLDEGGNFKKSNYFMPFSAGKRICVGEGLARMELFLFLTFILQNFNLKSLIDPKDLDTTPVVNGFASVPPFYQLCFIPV

Cytochrome P450 3A4 = Cytochrome P450 3A4 (Homo sapiens, UniProt P08684); assay: Inhibition of CYP3A4 in human liver microsomes; format: ADME, Microsome
Sequence of Cytochrome P450 3A4 (P08684 whole entry): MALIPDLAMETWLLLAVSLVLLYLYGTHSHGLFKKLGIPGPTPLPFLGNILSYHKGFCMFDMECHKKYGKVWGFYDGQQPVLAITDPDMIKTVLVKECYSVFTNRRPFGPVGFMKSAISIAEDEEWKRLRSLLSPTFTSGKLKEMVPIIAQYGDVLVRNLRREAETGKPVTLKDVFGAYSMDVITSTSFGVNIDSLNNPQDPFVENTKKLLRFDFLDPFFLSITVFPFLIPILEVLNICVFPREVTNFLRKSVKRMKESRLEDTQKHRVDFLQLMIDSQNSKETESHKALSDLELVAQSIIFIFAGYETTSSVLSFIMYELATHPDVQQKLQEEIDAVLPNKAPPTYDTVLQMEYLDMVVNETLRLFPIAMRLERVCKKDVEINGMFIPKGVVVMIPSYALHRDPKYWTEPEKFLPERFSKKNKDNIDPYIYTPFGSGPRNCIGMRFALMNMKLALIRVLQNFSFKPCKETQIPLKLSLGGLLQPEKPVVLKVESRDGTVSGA

Cytochrome P450 1A2 = biological target: T2, Cytochrome P450 1A2 (Homo sapiens, UniProt P05177); assay: Inhibition of CYP1A2 in human liver microsomes; format: ADME, Microsome
T2 sequence (P05177 whole entry): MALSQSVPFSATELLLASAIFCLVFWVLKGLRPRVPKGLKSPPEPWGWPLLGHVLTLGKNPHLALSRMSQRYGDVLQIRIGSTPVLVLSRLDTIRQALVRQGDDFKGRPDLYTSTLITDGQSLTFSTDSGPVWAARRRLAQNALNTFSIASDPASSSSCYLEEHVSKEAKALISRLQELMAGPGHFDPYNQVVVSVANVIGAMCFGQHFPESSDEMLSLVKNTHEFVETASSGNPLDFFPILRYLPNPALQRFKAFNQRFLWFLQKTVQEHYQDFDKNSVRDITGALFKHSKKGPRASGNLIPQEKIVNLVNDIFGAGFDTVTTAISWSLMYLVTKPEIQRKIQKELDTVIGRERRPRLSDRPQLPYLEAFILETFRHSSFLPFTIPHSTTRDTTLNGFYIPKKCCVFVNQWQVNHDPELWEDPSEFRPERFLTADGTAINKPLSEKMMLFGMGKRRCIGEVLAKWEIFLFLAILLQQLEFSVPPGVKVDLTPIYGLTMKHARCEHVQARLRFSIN

Cytochrome P450 2D6 = Cytochrome P450 2D6 (Homo sapiens, UniProt P10635); assay: Inhibition of CYP2D6 in human liver microsomes; format: ADME, Microsome
Sequence of Cytochrome P450 2D6 (P10635 whole entry): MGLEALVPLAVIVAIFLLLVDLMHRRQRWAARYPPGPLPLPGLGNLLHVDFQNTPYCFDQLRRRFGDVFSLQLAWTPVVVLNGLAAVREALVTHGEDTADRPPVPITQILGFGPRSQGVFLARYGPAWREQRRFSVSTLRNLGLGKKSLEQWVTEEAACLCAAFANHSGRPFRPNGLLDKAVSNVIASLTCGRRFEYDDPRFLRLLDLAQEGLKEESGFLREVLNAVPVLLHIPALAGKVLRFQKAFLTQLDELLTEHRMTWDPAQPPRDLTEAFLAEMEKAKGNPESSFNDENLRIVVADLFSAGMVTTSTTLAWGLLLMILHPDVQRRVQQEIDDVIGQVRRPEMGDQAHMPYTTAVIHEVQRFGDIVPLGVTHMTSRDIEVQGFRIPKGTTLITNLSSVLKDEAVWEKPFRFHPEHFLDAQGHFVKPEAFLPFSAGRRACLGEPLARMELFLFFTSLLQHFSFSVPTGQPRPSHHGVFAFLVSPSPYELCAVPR

[3] = biological target: Voltage-gated inwardly rectifying potassium channel KCNH2 (Homo sapiens, UniProt Q12809); assay: Inhibition of human ERG by patch clamp assay; format: toxicity
Sequence of Voltage-gated inwardly rectifying potassium channel KCNH2 (Q12809 whole entry): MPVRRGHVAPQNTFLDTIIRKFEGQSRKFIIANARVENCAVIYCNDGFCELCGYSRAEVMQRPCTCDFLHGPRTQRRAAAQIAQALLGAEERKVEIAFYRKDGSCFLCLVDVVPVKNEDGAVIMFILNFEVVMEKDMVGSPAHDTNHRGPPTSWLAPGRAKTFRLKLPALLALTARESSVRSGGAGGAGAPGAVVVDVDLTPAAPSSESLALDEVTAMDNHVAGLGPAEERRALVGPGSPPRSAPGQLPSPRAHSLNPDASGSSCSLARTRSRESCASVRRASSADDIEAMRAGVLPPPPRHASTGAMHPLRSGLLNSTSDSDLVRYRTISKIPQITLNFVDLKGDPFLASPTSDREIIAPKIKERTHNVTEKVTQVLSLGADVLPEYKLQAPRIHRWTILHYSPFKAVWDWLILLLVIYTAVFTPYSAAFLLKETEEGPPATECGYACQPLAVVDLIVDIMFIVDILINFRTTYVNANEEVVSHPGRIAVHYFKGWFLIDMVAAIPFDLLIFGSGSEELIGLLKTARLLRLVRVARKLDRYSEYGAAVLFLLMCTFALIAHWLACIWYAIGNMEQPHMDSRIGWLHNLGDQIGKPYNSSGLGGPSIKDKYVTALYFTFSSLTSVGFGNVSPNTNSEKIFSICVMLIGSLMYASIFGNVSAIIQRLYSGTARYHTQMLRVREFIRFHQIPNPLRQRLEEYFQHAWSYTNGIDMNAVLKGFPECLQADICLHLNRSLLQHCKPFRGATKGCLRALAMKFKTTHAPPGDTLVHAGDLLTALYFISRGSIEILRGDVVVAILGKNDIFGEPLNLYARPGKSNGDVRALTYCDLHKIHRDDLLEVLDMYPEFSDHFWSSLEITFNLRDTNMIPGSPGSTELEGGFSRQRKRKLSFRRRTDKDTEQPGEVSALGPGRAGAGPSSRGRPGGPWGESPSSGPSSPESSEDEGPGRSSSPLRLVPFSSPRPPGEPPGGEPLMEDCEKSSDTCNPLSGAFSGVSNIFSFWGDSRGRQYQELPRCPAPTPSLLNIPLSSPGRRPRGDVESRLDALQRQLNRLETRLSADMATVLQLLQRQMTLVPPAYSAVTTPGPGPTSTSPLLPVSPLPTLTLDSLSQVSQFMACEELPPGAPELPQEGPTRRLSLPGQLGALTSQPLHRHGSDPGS

in vivo = details: C57BL/6, mouse, po, 10 mg/kg
Description: Oral bioavailability in C57BL/6 mouse at 10 mg/kg

[4] = biological target: Kelch-like ECH-associated protein 1 (Homo sapiens, UniProt Q14145); assay: Binding affinity to biotinylated Keap1 Kelch domain (unknown origin) by SPR method
Sequence of Kelch-like ECH-associated protein 1 (Q14145 whole entry, the tested form may be a part): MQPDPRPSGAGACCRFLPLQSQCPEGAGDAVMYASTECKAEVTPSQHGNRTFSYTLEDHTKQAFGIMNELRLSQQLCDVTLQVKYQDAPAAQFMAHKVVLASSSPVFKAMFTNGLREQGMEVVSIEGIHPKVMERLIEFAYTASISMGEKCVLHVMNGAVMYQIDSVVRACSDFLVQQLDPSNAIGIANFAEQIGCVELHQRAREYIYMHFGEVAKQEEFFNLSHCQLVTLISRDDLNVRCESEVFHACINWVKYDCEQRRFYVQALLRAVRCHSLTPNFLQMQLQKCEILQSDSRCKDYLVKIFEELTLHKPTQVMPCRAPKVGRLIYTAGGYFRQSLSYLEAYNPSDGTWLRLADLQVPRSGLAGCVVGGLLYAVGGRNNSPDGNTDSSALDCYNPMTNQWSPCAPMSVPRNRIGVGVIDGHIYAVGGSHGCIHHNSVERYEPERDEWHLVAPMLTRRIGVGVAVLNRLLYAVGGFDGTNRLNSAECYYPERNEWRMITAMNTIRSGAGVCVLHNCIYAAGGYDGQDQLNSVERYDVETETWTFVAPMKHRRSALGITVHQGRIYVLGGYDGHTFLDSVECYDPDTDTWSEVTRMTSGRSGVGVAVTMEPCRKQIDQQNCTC

Sequence of Keap1/Nrf2 (Q16236 whole entry, the tested form may be a part): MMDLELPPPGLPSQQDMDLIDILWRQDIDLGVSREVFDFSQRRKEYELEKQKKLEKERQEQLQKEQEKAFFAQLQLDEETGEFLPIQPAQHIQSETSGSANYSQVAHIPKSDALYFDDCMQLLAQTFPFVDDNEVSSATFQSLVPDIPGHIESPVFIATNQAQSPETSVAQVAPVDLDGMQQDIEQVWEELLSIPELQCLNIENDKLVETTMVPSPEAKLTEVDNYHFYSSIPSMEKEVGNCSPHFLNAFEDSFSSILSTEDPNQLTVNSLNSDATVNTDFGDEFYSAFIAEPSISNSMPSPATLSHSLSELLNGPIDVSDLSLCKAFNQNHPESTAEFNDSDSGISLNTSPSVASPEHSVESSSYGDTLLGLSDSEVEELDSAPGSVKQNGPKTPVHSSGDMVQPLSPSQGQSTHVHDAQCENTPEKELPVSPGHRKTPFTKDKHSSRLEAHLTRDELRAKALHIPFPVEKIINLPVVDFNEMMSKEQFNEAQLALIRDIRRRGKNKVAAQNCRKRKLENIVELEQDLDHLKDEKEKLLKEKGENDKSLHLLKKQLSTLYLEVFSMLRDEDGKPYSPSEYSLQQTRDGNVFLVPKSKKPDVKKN
Sequence of Keap1/Nrf2 (Q14145 whole entry, the tested form may be a part): as the sequence (Q14145 whole entry, the tested form may be a part) above

| Papp at 2 h [1] | IC50 (Keap1/Nrf2) | remaining at 1 h, 5 µM [2] | Structure (SMILES) | also measured |
| --- | --- | --- | --- | --- |
| 1.1 ×10⁻⁶ cm/s | 0.64 µM | 95% | Cc1ccc([C@@H](NC(=O)Cc2ccc(Cn3cccn3)cc2)[C@@H](C)C(=O)O)cc1 |  |
| 18 ×10⁻⁶ cm/s | 9.6 µM | 57% | CCCOc1cc([C@@H](NC(=O)Cc2ccc(C)cc2)[C@@H](C)C(=O)O)ccc1C |  |
| 8.9 ×10⁻⁶ cm/s | 0.045 µM | 84% | CCOc1cccnc1Cc1ccc(CC(=O)N[C@H](c2ccc(C)cc2)[C@@H](C)C(=O)O)cc1 |  |
|  |  |  | Cc1ccc([C@@H](NC(=O)[C@@H](F)c2ccc(Cl)cc2)[C@@H](C)C(=O)O)cc1OCC(C)(C)C#N | IC50 (Cytochrome P450 2C9): 6.2 µM; IC50 (Cytochrome P450 2C8): > 10 µM; IC50 (Cytochrome P450 2C19): > 10 µM; IC50 (Cytochrome P450 3A4): > 10 µM; IC50 (Cytochrome P450 1A2): > 10 µM; IC50 (Cytochrome P450 2D6): > 10 µM; IC50 [3]: > 30 µM |
| 42 ×10⁻⁶ cm/s | 8.4 µM | 16% | Cc1ccc([C@@H](NC(=O)Cc2ccc(CC3CCCCC3)cc2)[C@@H](C)C(=O)O)cc1 |  |
|  |  |  | CCOc1cccnc1Cc1ccc([C@H](F)C(=O)N[C@H](c2ccc(C)cc2)[C@@H](C)C(=O)O)cc1 | IC50 (Cytochrome P450 2C9): > 10 µM; IC50 (Cytochrome P450 2C8): > 10 µM; IC50 (Cytochrome P450 2C19): > 10 µM; IC50 (Cytochrome P450 3A4): > 10 µM; IC50 (Cytochrome P450 1A2): > 10 µM; IC50 (Cytochrome P450 2D6): > 10 µM; IC50 [3]: > 30 µM |
| 0.31 ×10⁻⁶ cm/s | 4.2 µM | 100% | Cc1ccc(CC(=O)N[C@H](c2ccc(C)c(OCC(C)(C)O)c2)[C@@H](C)C(=O)O)cc1 |  |
| 21 ×10⁻⁶ cm/s | 13 µM | 74% | Cc1ccc(CC(=O)N[C@H](c2ccc(C)c(OCc3ccccc3)c2)[C@@H](C)C(=O)O)cc1 |  |
| 24 ×10⁻⁶ cm/s | 2 µM | 79% | Cc1ccc([C@@H](NC(=O)Cc2ccc(Cc3ccccc3)cc2)[C@@H](C)C(=O)O)cc1 |  |
| 1.4 ×10⁻⁶ cm/s | 0.078 µM | 43% | Cc1ccc(CC(=O)N[C@H](c2ccc(C)c(OCC(C)(C)C#N)c2)[C@@H](C)C(=O)O)cc1 |  |
| 11 ×10⁻⁶ cm/s | 0.27 µM | 68% | Cc1ccc(CC(=O)N[C@H](c2ccc(C)c(OCC(C)(C)F)c2)[C@@H](C)C(=O)O)cc1 |  |
| 21 ×10⁻⁶ cm/s | 5 µM |  | Cc1ccc(CC(=O)N[C@H](c2ccc(C)c(OCC3CCCC3)c2)[C@@H](C)C(=O)O)cc1 |  |
| 7.1 ×10⁻⁶ cm/s | 0.1 µM | 91% | COc1cccnc1Cc1ccc(CC(=O)N[C@H](c2ccc(C)cc2)[C@@H](C)C(=O)O)cc1.Cl |  |
| 5.7 ×10⁻⁶ cm/s | 0.36 µM | 94% | Cc1ccc([C@@H](NC(=O)Cc2ccc(Cc3ccccn3)cc2)[C@@H](C)C(=O)O)cc1.Cl |  |
|  |  |  | Cc1ccc([C@H](F)C(=O)N[C@H](c2ccc(C)c(OCC3(C#N)CC3)c2)[C@@H](C)C(=O)O)cc1 | IC50 (Cytochrome P450 2C9): > 10 µM; IC50 (Cytochrome P450 2C8): > 10 µM; IC50 (Cytochrome P450 2C19): > 10 µM; IC50 (Cytochrome P450 3A4): > 10 µM; IC50 (Cytochrome P450 1A2): > 10 µM; IC50 (Cytochrome P450 2D6): > 10 µM; IC50 [3]: > 30 µM |
| 15 ×10⁻⁶ cm/s | 15 µM | 93% | Cc1ccc([C@@H](NC(=O)Cc2ccc(CC3CC3)cc2)[C@@H](C)C(=O)O)cc1 |  |
|  |  |  | COc1ccc(S(=O)(=O)Nc2ccc(N(CC(=O)N3CCSC3=O)S(=O)(=O)c3ccc(OC)cc3)c3ccccc23)cc1 | bioavailability (in vivo): 68% |
| 33 ×10⁻⁶ cm/s | 0.26 µM |  | Cc1ccc([C@@H](NC(=O)[C@@H](F)c2ccc3c(c2)CCCC3)[C@@H](C)C(=O)O)cc1 | Kd [4]: 0.13 µM |
| 8.8 ×10⁻⁶ cm/s | 20 µM | 97% | Cc1ccc(CC(=O)N[C@H](c2ccc(C)cc2)[C@@H](C)C(=O)O)cc1 |  |
| 11 ×10⁻⁶ cm/s | 0.14 µM | 93% | Cc1ccc([C@@H](NC(=O)Cc2ccc(Cc3ncccc3C)cc2)[C@@H](C)C(=O)O)cc1.Cl |  |
| 26 ×10⁻⁶ cm/s | 3.6 µM | 73% | Cc1ccc(CC(=O)N[C@H](c2ccc(C)c(OCC(C)C)c2)[C@@H](C)C(=O)O)cc1 |  |
| 0.16 ×10⁻⁶ cm/s | 0.92 µM | 98% | Cc1ccc([C@@H](NC(=O)Cc2ccc(Cn3ccccc3=O)cc2)[C@@H](C)C(=O)O)cc1 |  |
| 0.62 ×10⁻⁶ cm/s | 0.05 µM | 83% | Cc1ccc(CC(=O)N[C@H](c2ccc(C)c(OCC3(C#N)CC3)c2)[C@@H](C)C(=O)O)cc1 |  |
| 1.2 ×10⁻⁶ cm/s | 0.091 µM | 90% | Cc1ccc([C@@H](NC(=O)Cc2ccc(Cl)cc2)[C@@H](C)C(=O)O)cc1OCC(C)(C)C#N |  |
| 5.4 ×10⁻⁶ cm/s | 0.22 µM | 92% | Cc1ccc([C@@H](NC(=O)Cc2ccc(Cc3cc(C)ccn3)cc2)[C@@H](C)C(=O)O)cc1.Cl |  |
| 2 ×10⁻⁶ cm/s | 0.17 µM | 94% | Cc1ccc([C@@H](NC(=O)Cc2ccc(Cc3cccc(C)n3)cc2)[C@@H](C)C(=O)O)cc1.Cl |  |
| 5.4 ×10⁻⁶ cm/s | 0.2 µM | 97% | Cc1ccc([C@@H](NC(=O)Cc2ccc(Cc3ccc(C)cn3)cc2)[C@@H](C)C(=O)O)cc1.Cl |  |
| 17 ×10⁻⁶ cm/s | 10 µM |  | Cc1ccc(CC(=O)N[C@H](c2ccc(C)c(OCC3CCCCC3)c2)[C@@H](C)C(=O)O)cc1 |  |
